{"source": "paper PMC6972920", "about": "“Structure-based development of caged dopamine D2/D3 receptor antagonists” (Scientific Reports, 2020)", "key": {"[1]": {"biological_target": "T1, human dopamine D5 receptor (Homo sapiens, UniProt P21918)", "T1 construct": "expressed in transfected cells; host or cells: HEK293T cells, transient transfection", "T1 sequence (P21918 whole entry)": "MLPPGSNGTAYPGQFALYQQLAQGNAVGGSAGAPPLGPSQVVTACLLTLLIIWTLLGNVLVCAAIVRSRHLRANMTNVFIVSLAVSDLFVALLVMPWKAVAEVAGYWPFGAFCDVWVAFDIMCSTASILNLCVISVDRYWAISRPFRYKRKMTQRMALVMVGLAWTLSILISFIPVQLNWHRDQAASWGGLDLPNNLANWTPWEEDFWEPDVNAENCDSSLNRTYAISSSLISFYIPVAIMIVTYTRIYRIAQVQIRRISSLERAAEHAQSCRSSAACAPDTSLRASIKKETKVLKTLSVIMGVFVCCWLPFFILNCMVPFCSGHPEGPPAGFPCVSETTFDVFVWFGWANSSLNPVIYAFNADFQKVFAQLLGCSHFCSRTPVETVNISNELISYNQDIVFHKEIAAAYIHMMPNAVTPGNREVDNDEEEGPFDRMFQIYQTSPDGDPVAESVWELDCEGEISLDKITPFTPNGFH", "assay": "Competition binding, [3H]SCH23390, HEK293T membranes"}, "D2 and D3 receptors": {"tested_on": "D2 and D3 receptors", "assay": "Radioligand binding, summary over D2 and D3 subtypes", "parameters": "species or system human"}}, "data": [{"smiles": "CCc1ccc(OC)c(C(=O)NC[C@@H]2CCCN2CC)c1O", "note": "[dechloroeticlopride, (S)-3-Ethyl-N-[(1-ethylpyrrolidin-2-yl)methyl]-2-hydroxy-6-methoxybenzamide, reference compound]", "values": [{"measurement": "Ki", "setting": "[1]", "result": "49 ± 17", "unit": "µM"}, {"measurement": "difference in affinity, uncaged dechloroeticlopride over 4, 5 and 6", "setting": "D2 and D3 receptors; at D2S and D3, radioligand displacement curves", "result": "more than 100 fold"}, {"measurement": "Ki", "setting": "D2 and D3 receptors; range over D2L, D2S, D3, stated in text", "result": "0.0012 to 0.0024", "unit": "µM"}]}]}
